Results from PubChem BioAssay (NCI).
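48-hour exposure; five concentrations; linearly interpolated endpoints. Abbreviation: GI50, concentration required for 50% inhibition of growth. Definition used: TGI = concentration required for complete inhibition of growth.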

Experiments:
Test in all cases: NCI tumour cell line growth inhibition, 48 h
[1] = system: 786-0 renal
[2] = system: BT-549 breast
[3] = system: DU-145 prostate
[4] = system: TK-10 renal
[5] = system: M14 melanoma
[6] = system: UACC-62 melanoma
[7] = system: SF-295 CNS
[8] = system: SN12C renal
[9] = system: UO-31 renal
[10] = system: HT29 colon
[11] = system: RXF 393 renal

Compound `CCOC(=O)Cc1nc2c(N)ncnc2n1C1OC(COC(C)=O)C(OC(C)=O)C1OC(C)=O` (stereo not drawn) has a TGI [1] of over 100 µM, a TGI [2] of over 100 µM and a TGI [3] of over 100 µM. The TGI [4] was over 100 µM, the TGI [5] was over 100 µM and the TGI [6] was over 100 µM. For the same compound, the TGI [7] was over 100 µM, the TGI [8] was over 100 µM and the TGI [9] was over 100 µM. It also gave a TGI [10] of over 100 µM.
Compound `CC(=O)N1CCn2c1nc1cc(Cl)ccc12` has a TGI [1] of over 100 µM, a TGI [2] of over 100 µM and a TGI [3] of over 100 µM. For the same compound, the TGI [4] was over 100 µM, the TGI [11] was 53.9 µM and the TGI [5] was over 100 µM. For the same compound, the TGI [6] was over 100 µM, the TGI [7] was over 100 µM and the TGI [8] was over 100 µM. It also gave a TGI [10] of over 100 µM.
With `CC1(C)CC(=O)C2=C(C1)OC1=C(CC(C)(C)CC1=O)C2c1ccccc1[N+](=O)[O-]` (stereo not drawn) the TGI [1] was over 100 µM, the TGI [3] was over 100 µM and the TGI [4] was over 100 µM. The TGI [11] was over 100 µM, the TGI [5] was over 100 µM and the TGI [6] was over 100 µM. For the same compound, the TGI [7] was over 100 µM, the TGI [8] was over 100 µM and the TGI [9] was 3.69 µM. For the same compound, the TGI [10] was over 100 µM.
Compound `CC(=O)N(O)c1ccc(-c2nc3ccccc3s2)cc1` has a TGI [1] of over 100 µM, a TGI [3] of over 100 µM and a TGI [4] of over 100 µM. The TGI [11] was over 100 µM, the TGI [5] was over 100 µM and the TGI [6] was over 100 µM. For the same compound, the TGI [7] was over 100 µM, the TGI [8] was over 100 µM and the TGI [9] was over 100 µM. The TGI [10] was over 100 µM.
Work on `COc1cccc(/C=N/[N-]C(N)=O)c1[O-].[Cu+2].[OH3+].c1ccc(-c2ccccn2)nc1` yielded a TGI [1] of 36.6 µM, a TGI [4] of 42.9 µM and a TGI [11] of 40.8 µM. The TGI [5] was 74 µM, the TGI [6] was 31.3 µM and the TGI [7] was over 100 µM. For the same compound, the TGI [8] was over 96.8 µM, the TGI [9] was over 100 µM and the TGI [10] was over 100 µM.
`C=CCOCn1cc(C)c(=O)[nH]c1=O` showed a TGI [1] of over 100 µM, a TGI [2] of over 100 µM and a TGI [3] of over 100 µM. The TGI [4] was over 100 µM, the TGI [5] was over 100 µM and the TGI [6] was over 100 µM. For the same compound, the TGI [7] was over 100 µM, the TGI [8] was over 100 µM and the TGI [9] was over 100 µM. For the same compound, the TGI [10] was over 100 µM.
For `CN(C)CCNC(=O)c1cccc2c1Oc1c(cccc1[N+](=O)[O-])O2`, the TGI [1] was 3.98 µM, the TGI [2] was 4.66 µM and the TGI [3] was 5.37 µM. For the same compound, the TGI [4] was 6.08 µM, the TGI [11] was 4.94 µM and the TGI [5] was 16.2 µM. The TGI [6] was 1.77 µM, the TGI [7] was 5.09 µM and the TGI [8] was 3.72 µM. For the same compound, the TGI [10] was 5.78 µM.
With `CN1c2ccccc2N(C(=O)c2ccccc2)C(CC(=O)O)c2cccn21` (stereo not drawn) the TGI [1] was over 100 µM, the TGI [4] was over 100 µM and the TGI [11] was over 100 µM. The TGI [5] was over 100 µM, the TGI [6] was over 100 µM and the TGI [7] was over 100 µM. For the same compound, the TGI [8] was over 100 µM, the TGI [9] was over 100 µM and the TGI [10] was over 100 µM.
`CCOC(=O)C1=C(C)N(c2ccc(OC)cc2)C2(O)C=CC(=O)C3=C(O)c4ccccc4C(=O)C312` (stereo not drawn) gave a TGI [2] of 29 µM, a TGI [3] of 28.4 µM and a TGI [4] of 27.4 µM. It also gave a TGI [5] of 21.8 µM, a TGI [6] of 26.4 µM and a TGI [7] of 29.3 µM. For the same compound, the TGI [8] was 30.2 µM, the TGI [9] was 31 µM and the TGI [10] was 32.7 µM.
In the case of `CC(C)(C)N(Cc1ccc2c(c1)OCO2)C(=O)/C=C\Sc1ccccc1`, the TGI [1] is reported as over 100 µM, the TGI [2] is reported as over 100 µM and the TGI [3] is reported as over 100 µM. It also gave a TGI [4] of over 100 µM, a TGI [5] of over 100 µM and a TGI [6] of over 100 µM. It also gave a TGI [7] of over 100 µM, a TGI [8] of over 100 µM and a TGI [9] of over 100 µM. The TGI [10] was over 100 µM.
With `CC(=O)[CH-]C(=O)c1ccccc1.CC(=O)[CH-]C(=O)c1ccccc1.C[C@]12CCC(=O)C=C1CC[C@@H]1C2CC[C@@]2(C)C1CC[C@]2(C)[O-].C[C@]12CCC(=O)C=C1CC[C@@H]1C2CC[C@@]2(C)C1CC[C@]2(C)[O-].Cl.[Ti+4]` (stereo partly drawn) the GI50 [4] was 34.2 µM, the TGI [4] was over 100 µM and the GI50 [5] was 24.2 µM. For the same compound, the TGI [5] was 83.6 µM, the GI50 [6] was 12.8 µM and the TGI [6] was 42.9 µM. It also gave a GI50 [7] of 18.4 µM, a TGI [7] of 57.3 µM and a GI50 [8] of 18.7 µM. The TGI [8] was 49.5 µM, the GI50 [9] was 24.2 µM and the TGI [9] was 85.3 µM. It also gave a GI50 [10] of 16.3 µM and a TGI [10] of 76 µM.
For `CSc1c(C(=O)Nc2ccc(Cl)cc2)c(N)n(N)c(=O)c1C#N`, the TGI [1] was over 100 µM, the TGI [2] was over 100 µM and the TGI [3] was over 100 µM. For the same compound, the TGI [4] was over 100 µM, the TGI [11] was over 100 µM and the TGI [5] was over 100 µM. It also gave a TGI [6] of over 100 µM, a TGI [8] of over 100 µM and a TGI [9] of over 100 µM. It also gave a TGI [10] of over 100 µM.
Work on `CC1(C)C(=O)C(C)(C)C1=S` yielded a TGI [1] of over 100 µM, a TGI [4] of over 100 µM and a TGI [5] of over 100 µM. For the same compound, the TGI [6] was over 100 µM, the TGI [7] was over 100 µM and the TGI [8] was over 100 µM. It also gave a TGI [9] of over 100 µM and a TGI [10] of over 100 µM.
With `Nc1ncnc2c1ncn2C1CC(OCc2ccccc2[N+](=O)[O-])C(CO)O1` (stereo not drawn) the TGI [1] was over 50 µM, the TGI [4] was over 50 µM and the TGI [11] was 21.4 µM. For the same compound, the TGI [5] was over 50 µM, the TGI [7] was over 50 µM and the TGI [8] was over 50 µM. It also gave a TGI [9] of 48 µM and a TGI [10] of over 50 µM.
With `CC1=NC(=Cc2ccc([N+](=O)[O-])cc2)C(=O)N1n1c(-c2ccccc2)nc2ccccc2c1=O` the TGI [1] was over 100 µM, the TGI [2] was over 100 µM and the TGI [3] was over 100 µM. It also gave a TGI [4] of over 100 µM, a TGI [5] of over 100 µM and a TGI [6] of over 100 µM. It also gave a TGI [7] of over 100 µM, a TGI [8] of over 100 µM and a TGI [9] of over 100 µM. The TGI [10] was over 100 µM.
Compound `CC(=N\N)/C(C)=N/N=C(C)/C(C)=N/N=C(C)/C(C)=N/N` has a TGI [1] of over 100 µM, a TGI [2] of over 100 µM and a TGI [3] of over 100 µM. The TGI [4] was over 100 µM, the TGI [11] was over 100 µM and the TGI [5] was over 100 µM. The TGI [7] was over 100 µM, the TGI [8] was over 100 µM and the TGI [9] was over 100 µM. For the same compound, the TGI [10] was over 100 µM.
`CN(C)c1cccc(NC2=NCCO2)c1` showed a TGI [1] of over 100 µM, a TGI [3] of over 100 µM and a TGI [4] of over 100 µM. The TGI [11] was over 100 µM, the TGI [5] was over 100 µM and the TGI [6] was over 100 µM. The TGI [7] was over 100 µM, the TGI [8] was over 100 µM and the TGI [9] was over 100 µM. It also gave a TGI [10] of 47.4 µM.
`O=C(NNc1ccccc1)/C(=C/c1ccc2c(c1)OCO2)NC(=O)c1ccccc1` gave a TGI [1] of over 100 µM, a TGI [4] of over 100 µM and a TGI [11] of over 100 µM. The TGI [5] was over 100 µM, the TGI [6] was over 100 µM and the TGI [7] was over 100 µM. For the same compound, the TGI [8] was over 100 µM, the TGI [9] was over 100 µM and the TGI [10] was over 100 µM.
`O=P(O)(O)C1(P(=O)(O)O)CC1` was tested, and the TGI [1] was over 100 µM, the TGI [4] was over 100 µM and the TGI [11] was over 100 µM. The TGI [5] was over 100 µM, the TGI [6] was over 100 µM and the TGI [7] was over 100 µM. It also gave a TGI [8] of over 100 µM, a TGI [9] of over 100 µM and a TGI [10] of over 100 µM.
`COC(=O)c1ccc(Nc2nc3nc[nH]c3c(=O)[nH]2)cc1` showed a TGI [1] of over 100 µM, a TGI [2] of over 100 µM and a TGI [3] of over 100 µM. For the same compound, the TGI [4] was over 100 µM, the TGI [5] was over 100 µM and the TGI [6] was over 100 µM. It also gave a TGI [7] of over 100 µM, a TGI [8] of over 100 µM and a TGI [10] of over 100 µM.
`Nc1c(Cl)ncnc1NCCCNc1ncnc(Cl)c1N` was tested, and the TGI [1] was over 100 µM, the TGI [4] was over 100 µM and the TGI [11] was over 100 µM. The TGI [5] was over 100 µM, the TGI [6] was over 100 µM and the TGI [7] was over 100 µM. For the same compound, the TGI [8] was over 100 µM, the TGI [9] was over 100 µM and the TGI [10] was over 100 µM.
